Laboratory results published in patent US8071575B2, “Methods and compounds for the targeted delivery of agents to bone for interaction therewith” (priority 2007, dated 2011).
Entries after “also recorded” stand apart in the source; their conditions may differ.

How the values were obtained:
OVX rats [1] = experiment: Regional femoral density via Archimedes' Principle; type: in vivo, Sprague-Dawley female rats; settings: oral 10, 100, or 1000 μg/kg, three times per week for 6 weeks
Experimental: (§1) Animals. Six month old, bilaterally ovariectomized (OVX) or sham operated Sprague-Dawley female rats (Harlan Laboratories, Indianapolis, Ind.) were maintained at the University of Louisville Research Resources Center at 22° C. with a 12-h light/dark cycle and ad libitum access to tap water and rodent chow (Purina Laboratory Rodent Diet 5001). All animal procedures were approved by the Institutional Animal Care and Use Committee, which is certified by the American Association for Accreditation of Laboratory Animal Care.
(§2) In vivo experiments were conducted in order to investigate the efficacy of compounds of the presently-disclosed subject matter. In all of the experiments, OVX and sham operated rats were randomly divided into groups of 5-7 animals. In all of the studies experimental groups included: i) Sham-operated control (euthanized six weeks post surgery as a pretreatment control), ii) OVX control (euthanized six weeks post surgery as a pretreatment control), iii) Sham control receiving vehicle, iv) OVX control receiving vehicle, v) OVX receiving 17-ethinyl estradiol (equimolar concentration with a selected test compound), vi) OVX receiving alendronate (1.6 mg/kg), and vii) OVX receiving parathyroid hormone 1-34 (PTH) ([…]). 17-ethinyl estradiol (17 EE) is a free estrogenic agent known to be orally active, and can serve as an example of an anti-catabolic agent. Alendronate (Alen) is a bisphosphonate that is currently used to treat osteoporosis (e.g., Fosamax®, Merck & Co., Inc,), and can serve as an example of an anti-catabolic agent. Parathyroid hormone 1-34 (PTH) is an agent that can serve as an example of an anabolic agent. All compounds and vehicle (1% DMSO in corn oil) were administered three times per week orally by gavage except for PTH which was administered via a subcutaneous injection in a volume of 0.5 ml/kg body mass thrice per week. Compound administration was initiated 6 weeks following surgery and lasted for 6 weeks (18 doses total).
(§3) Compounds of the presently-disclosed subject matter were orally administered to OVX rats at various doses. As indicated above all BTE's were administered three times per week for 6 weeks.
Following 6 weeks of treatment, blood was obtained from each animal via cardiac puncture following an overnight fast and animals were subsequently euthanized via carbon dioxide asphyxiation. […]
Regional Femoral Density via Archimedes' Principle. […] Briefly, each femur was measured with a Cen-Tech Digital Caliper and a cut was made from each end at 20% of the length of the femur plus half the width of the blade. Subsequently, the bone marrow was washed out of the femoral diaphysis and the Archimedes density for each of the three femoral regions was determined as described above.

[2] = Hydroxyapatite (HA) Binding Assay; settings: 10^−5 M analyte, 50 mM Tris-HCl pH 7.4, 1% DMSO; adjusted such that tetracycline = 100
Experimental: A Hydroxyapatite (HA) Binding Assay is used to determine whether compounds have an affinity for bone. Compounds of the presently-disclosed subject matter having a Bone Targeting Portion (RT) are studied using the HA Binding Assay. A 10^−3 M solution of each analyte was made in 100% dimethylsulfoxide (DMSO). A 100 fold dilution was then made to form a 10^−5 M solution in 50 mM Tris-HCl buffer, pH 7.4, 1% DMSO. Tetracycline was used as a reference analyte and approximately 50% was adsorbed to HA at the concentration of 10^−5 M. The HA slurry was 0.5 g/100 mL 50 mM Tris-HCl buffer, 1% DMSO.
For each analyte, two samples were prepared. For one sample, 1 mL of 10^−5 M analyte and 100 μL 50 mM Tris-HCl buffer, 1% DMSO was pipetted into a microcentrifuge tube. For the second sample, 1 mL of 10^−5 M analyte and 100 μL of the HA slurry was pipetted into a microcentrifuge tube. The samples were mixed gently by inversion for 4 minutes and then centrifuged at 12,000 g for 3 minutes to sediment the HA contained in those samples. The supernatant was transferred to another microcentrifuge tube.
An electronic spectral scan (ultraviolet-visible) from 220-520 nm was obtained for each analyte using a Varian Cary 300 Bio Scan. The blank was 50 mM Tris-HCl buffer, 1% DMSO. The wavelength of maximum absorbance (λmax) was determined, and the extinction coefficient (ε) was calculated using the Beer-Lambert Law.
The absorbance of the samples incubated with HA was measured at λmax, and the molar concentration of the analyte was then determined using the Beer-Lambert Law and the previously calculated extinction coefficient. The fraction adsorbed to HA for each sample was subsequently calculated.

ICR Swiss mice = experiment: Stimulation of periosteal bone formation in a mouse calvarial injection model; type: in vivo; settings: present-tense example, no data or figure
Experimental: Stimulation of Periosteal Bone Formation in a Mouse Calvarial Injection Model. The anabolic (bone formation) of compounds of the presently-disclosed subject matter are evaluated in the mouse calvarial injection model. Briefly, 4-week-old ICR Swiss mice are injected subcutaneously over the surface of the calvariae with compounds of the presently-disclosed subject matter at concentrations of 0, 1, 3, and 10 mg/kg/day for 5 days (twice a day). Microtubule inhibitor TN-16 (5 mg/kg/day for 2 days, twice a day) are used as a positive control. Mice are sacrificed two weeks after the injections are completed. Dissected calvarial samples are fixed in 10% phosphate-buffered formalin for 2 days, decalcified in 10% EDTA for 2 weeks and then embedded in paraffin. Histological sections are cut and stained with H&E and orange G. New woven bone formation (new bone area) is quantified by histomorphometry using the OsteoMeasure system (OsteoMetrics Inc., Atlanta, Ga.).

OVX rats [3] = experiment: Uterine mass and uterine mass to body weight ratio in OVX rats; type: in vivo, Sprague-Dawley female rats; settings: for uterine mass: present-tense example, no data or figure
Experimental: as §1, §2, §3
(§4) Following 6 weeks of treatment, blood was obtained from each animal via cardiac puncture following an overnight fast and animals were subsequently euthanized via carbon dioxide asphyxiation. Blood was centrifuged immediately and the obtained serum samples were aliquoted and stored at −70° C. prior to analysis. Uteri were removed and fresh weights were obtained. Uterine masses were normalized to body mass at the end of the experiment. The left and right femora and left and right tibiae were subsequently collected from each animal, cleaned of soft tissue, and stored in saline at 4° C. prior to analysis.
Uterine Mass and Body Weight. […] Uterine mass can be used to as a measure of estrogenic effect occurring in a tissue outside the bone in response to treatment with a test compound or composition. Generally, a lower uterine mass can be associated with a decreased risk of adverse side effects associated with the test compound or composition. A ratio of uterine mass to body weight can be used to correct for any increase in uterine size attributable to the relative size of the individual animal. Body weight and/or uterine mass also serve as an indirect measures of toxicity of a test compound.

OVX rats [4] = experiment: Volume fraction, ex vivo micro-computed tomography of tibia; type: in vivo, Sprague-Dawley female rats; settings: for bone density from three-dimensional micro-CT images / trabecular volume fraction: OVX rats, oral 10, 100, or 1000 μg/kg; for trabecular volume fraction: ex vivo micro-CT; for volume fraction (BV/TV) of trabecular, cortical and whole bone tissue: present-tense example, no data or figure
Experimental: as §1, §2, §3, §4
Volume Fraction—Ex vivo micro-computed tomography (μCT). Volume fraction is a representative value for the amount of bone that occupies a given volume or space. High resolution image data were collected using a customized micro-CT system (ACTIS 150/225 system, BIR Inc., Lincolnshire, Ill.). The metaphysis of each right tibia was scanned over a three millimeter range and three-dimensional images were reconstructed. Data were subsequently processed to reveal the volume fraction (BV/TV) occupied by trabecular (cancellous) bone tissue, cortical bone tissue, and whole bone tissue. The resulting data provides information regarding the density of whole bone, cortical bone, and trabecular bone.

OVX rats [5] = experiment: Quantitative determination of lipid metabolism (total cholesterol, HDL, LDL) in rat serum; type: in vivo, Sprague-Dawley female rats
Experimental: as §1, §2, §4
Quantitative Determination of Lipid Metabolism (Total Cholesterol HDL, and LDL) in Rat Serum. Total cholesterol, high-density lipoprotein (HDL), and low-density lipoprotein (LDL) were quantitatively determined in the serum of rats in order to evaluate the extraosseous effects of estrogen treatment on lipid metabolism. Commercially available kits from Wako Diagnostics (Richmond, Va.) were used for the evaluations as recommended by the manufacturer.

OVX rats [6] = experiment: Bone mechanical competence indentation test; type: in vivo, Sprague-Dawley female rats; settings: for bone strength (indentation test): present-tense example, no data or figure
Experimental: as §1, §2, §3, §4
Bone Mechanical Competence Indentation Test. After sacrifice, the left tibiae were trimmed to expose the cancellous bone of the proximal tibial metaphysis and an indentation test was performed by advancing a flat-tipped cylindrical post (1.5 mm diameter) axially into the cut surface to measure the compressive strength of the cancellous bone structure.

OVX rats [7] = experiment: RatLaps ELISA for C-telopeptide fragments of collagen type I (CTX-I) in serum; type: in vivo, Sprague-Dawley female rats; settings: Formula 125 at 1000 μg/kg, 17-ethinyl estradiol equimolar, alendronate 1.6 mg/kg
Excerpt: RatLaps™ ELISA for C-Telopeptide Fragments of Collagen Type I (CTX-I). […] Bone resorption (CTX-I) was quantitatively assessed in rat serum using the commercially available RatLaps™ ELISA KIT from Nordic Bioscience Diagnostics A/S (Herlev, Denmark) as recommended by the manufacturer.

OVX rats [8] = experiment: Femoral density via Archimedes' Principle (whole bone); type: in vivo, Sprague-Dawley female rats; settings: for whole bone density and regional bone density: present-tense example, no data or figure
Experimental: as §1, §2, §3, §4
Femoral Density via Archimedes' Principle. Right femora were submerged in distilled water and fully hydrated under a vacuum for 1 hr. Subsequently, the mass of each hydrated femur was obtained in air and when submerged in water. Densities were determined using Archimedes' Principle according to the following formula: density=[mass of hydrated femur/(mass of hydrated femur−mass of hydrated femur submerged in water)]×density of distilled water at a given temperature (See Keenan, et al. Comparison of bone density measurement techniques: DXA and Archimedes' principle. J Bone Miner Res 1997; 12:1903-7.). The obtained density measurements were associated with whole bone.

[9] = present-tense example, no data or figure

Row | lipid metabolism (total cholesterol, HDL, LDL in serum) (OVX rats [5]; [9]) | SMILES | regional bone density (left femur) (OVX rats [1]) | Binding Index (binding to hydroxyapatite) [2] | new bone area (calvarial injection model) (ICR Swiss mice) | ratio of uterine mass to body weight (OVX rats [3]; OVX rats, oral 10, 100, or 1000 μg/kg, compared to animals treated with 17-ethinyl estradiol) | bone density from three-dimensional micro-CT images (OVX rats [4]) | trabecular volume fraction (OVX rats [4]) | lipid metabolism (total cholesterol, HDL, LDL in serum) (OVX rats [5]; rat, in vivo) | bone strength (indentation test) (OVX rats [6]) | production of CTX-I (bone resorption marker) in serum (OVX rats [7]) | whole bone density and regional bone density (OVX rats [8]) | uterine mass (OVX rats [3]) | volume fraction (BV/TV) of trabecular, cortical and whole bone tissue (OVX rats [4]) | whole bone density (right femora) (OVX rats [8]; OVX rats, oral 10, 100, or 1000 μg/kg, three times per week for 6 weeks) | bone strength (tibial indentation test) (OVX rats [6]; OVX rats, oral 10, 100, or 1000 μg/kg)
1 | – | CC12CCC3c4ccc(O)cc4CCC3C1CC[C@H]2OCCC(=O)NCCOCCOCC(=O)Nc1ccc(OCc2ccccc2)c(C(N)=O)c1O (stereo partly drawn) [Formula 125] | increased regional bone densities, as compared to the OVX animals; also recorded: increased regional bone densities, as compared to the Sham animals | 160 | increase new bone area | lower | increase in bone density | increased, as compared to OVX animals | limited or no effect | increase bone strength | do not inhibit production of CTX-I | – | – | – | – | –
2 | – | NCCCC(O)(P(=O)(O)O)P(=O)(O)O [alendronate] | – | – | – | – | – | – | – | – | descrease the production of CTX-1 to sham levels | – | – | – | – | –
3 | – | C#C[C@]1(O)CC[C@H]2[C@@H]3CCc4cc(O)ccc4[C@H]3CC[C@@]21C [17-ethinyl estradiol] | – | – | – | – | – | – | – | – | descrease the production of CTX-1 to sham levels | – | – | – | – | –
4 | limited or no effect | COc1ccc(NC(=O)COCCOCCNC(=O)COc2ccc(-c3coc4cc(O)cc(O)c4c3=O)cc2)c(O)c1C(N)=O [Formula 128] | – | – | increase new bone area | – | – | – | – | increase bone strength | – | increase bone density | limited or no effect | increase bone density | – | –
5 | limited or no effect | COc1ccc(NC(=O)CCC(=O)Nc2nnc(S(N)(=O)=O)s2)c(O)c1C(N)=O [Formula 35] | – | 20 | increase new bone area | – | – | – | – | increase bone strength | – | increase bone density | limited or no effect | increase bone density | – | –
6 | – | COc1ccc(NC(=O)COCCOCCOCCNC(=O)CCO[C@@H]2CCC3C4CCc5cc(O)ccc5C4CCC32C)c(O)c1C(N)=O (stereo partly drawn) [Formula 124] | in the same ranges as those animals receiving 17-ethinyl estradiol (17 EE), Alendronate (Alen), or Parathyroid hormone 1-34 (PTH) | 100 | increase new bone area | – | increase in bone density | in the same ranges as those animals receiving 17-ethinyl estradiol (17 EE), Alendronate (Alen), or Parathyroid hormone 1-34 (PTH) | limited or no effect | – | – | – | – | – | in the same ranges as those animals receiving 17-ethinyl estradiol (17 EE), Alendronate (Alen), or Parathyroid hormone 1-34 (PTH) | dose-responsive increase in bone strength, relative to the OVX animals

Row | SMILES | lipid metabolism (total cholesterol, HDL, LDL in serum) (OVX rats [5]; [9]) | regional bone density (left femur) (OVX rats [1]) | Binding Index (binding to hydroxyapatite) [2] | new bone area (calvarial injection model) (ICR Swiss mice) | ratio of uterine mass to body weight (OVX rats [3]; OVX rats, oral 10, 100, or 1000 μg/kg, compared to animals treated with 17-ethinyl estradiol) | bone density from three-dimensional micro-CT images (OVX rats [4]) | trabecular volume fraction (OVX rats [4]) | lipid metabolism (total cholesterol, HDL, LDL in serum) (OVX rats [5]; rat, in vivo) | bone strength (indentation test) (OVX rats [6]) | production of CTX-I (bone resorption marker) in serum (OVX rats [7]) | whole bone density and regional bone density (OVX rats [8]) | uterine mass (OVX rats [3]) | volume fraction (BV/TV) of trabecular, cortical and whole bone tissue (OVX rats [4]) | whole bone density (right femora) (OVX rats [8]; OVX rats, oral 10, 100, or 1000 μg/kg, three times per week for 6 weeks) | bone strength (tibial indentation test) (OVX rats [6]; OVX rats, oral 10, 100, or 1000 μg/kg)
7 | COc1ccc(NC(=O)COCCOCCNC(=O)CCCC(CO[N+](=O)[O-])O[N+](=O)[O-])c(O)c1C(N)=O (stereo not drawn) [Formula 130] | limited or no effect | – | 130 | increase new bone area | – | – | – | – | increase bone strength | – | increase bone density | limited or no effect | increase bone density | – | –
